# pEC50: −log10 of the molar value.
# Biological target: T1, RORgT (Homo sapiens, UniProt P51449)
# T1 construct: Gal4 (fusion partner); expressed in transfected cells; host or cells: engineered Jurkat cells (Jurkat pEx/Gal/hRORγ CLBD/HYG pG5luc/blast)
# T1 sequence (P51449 267-516): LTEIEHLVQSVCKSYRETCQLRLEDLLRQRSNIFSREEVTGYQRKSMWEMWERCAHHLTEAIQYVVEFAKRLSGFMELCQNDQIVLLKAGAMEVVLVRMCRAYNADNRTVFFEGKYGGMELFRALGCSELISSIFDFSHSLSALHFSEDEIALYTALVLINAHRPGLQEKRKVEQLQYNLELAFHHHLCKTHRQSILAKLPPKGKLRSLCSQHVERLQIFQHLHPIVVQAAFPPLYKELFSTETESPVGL
# Assay: RORgT Gal4 Luciferase Reporter Gene Assay
# Assay type: cell-based
# Conditions: RORg_GAL4 EC50 (nM), engineered Jurkat cells overexpressing RORgT (LBD or full length) with Gal4 Luc reporter; 18 hours at 37° C.; 40 μM to 0.67 nM
# In short: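 Cells exposed to compound 18 hours at 37° C, then lysed for luciferase luminescence. Inhibition of constitutive activity expressed as percent reduction of signal window relative to a control compound.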
row,SMILES,EC50 [nM]
1,CC(C)c1cc(F)cc(Oc2c(Cl)ccc(C(=O)N3CCN(S(C)(=O)=O)CC3)c2Cl)c1 [Example 263],105

# Same assay, conditions: engineered Jurkat cells overexpressing RORgT (LBD or full length) with Gal4 Luc reporter; 18 hours at 37° C.; 40 μM to 0.67 nM; read-out: RORg_GAL4 EC50
row,pEC50,SMILES
1,6.55,COc1ccc(Oc2c(Cl)cc(NC(=O)Nc3cccnc3)cc2Cl)cc1C(C)C [Example 232]
2,6.50,COc1ccc(Oc2c(Cl)cc(NC(=O)OCC(C)(C)C#N)cc2Cl)cc1C(C)C [Example 233]
3,6.20,COc1ccc(Oc2c(Cl)cc(NC(=O)NCCS(N)(=O)=O)cc2Cl)cc1C(C)C [Example 234]
4,5.89,COc1ccc(Oc2c(Cl)cc(NC(=O)OCCn3ccnc3)cc2Cl)cc1C(C)C [Example 235]
5,6.22,COc1ccc(Oc2c(Cl)cc(NC(=O)N3CCOCC3)cc2Cl)cc1C(C)C [Example 236]
6,6.63,COc1ccc(Oc2c(Cl)cc(NC(=O)Cc3ccc[n+]([O-])c3)cc2Cl)cc1C(C)C [Example 237]
7,6.12,COc1ccc(Oc2c(Cl)cc(NC(=O)Cc3ccnc(N)c3)cc2Cl)cc1C(C)C [Example 238]
8,6.77,COc1ccc(Oc2c(Cl)cc(NC(=O)Cc3cncc(Cl)n3)cc2Cl)cc1C(C)C [Example 239]
9,7.00,COc1ccc(Oc2c(Cl)cc(NC(=O)Cc3cccnc3S(C)(=O)=O)cc2Cl)cc1C(C)C [Example 240]
10,7.19,COc1ccc(Oc2c(Cl)cc(NC(=O)Cc3ccnc(S(C)(=O)=O)c3)cc2Cl)cc1C(C)C [Example 241]
11,7.40,COc1ccc(Oc2c(Cl)cc(NC(=O)Cc3cncc(S(C)(=O)=O)c3)cc2Cl)cc1C(C)C [Example 242]
12,5.89,COc1ccc(Oc2c(Cl)cc(NC(=O)Cc3cnc(S(C)(=O)=O)cn3)cc2Cl)cc1C(C)C [Example 243]
13,7.43,COc1ccc(Oc2c(Cl)cc(NC(=O)Cc3cccc(S(N)(=O)=O)c3)cc2Cl)cc1C(C)C [Example 244]
14,5.81,COc1ccc(Oc2c(Cl)cc(NC(=O)CCn3cncn3)cc2Cl)cc1C(C)C [Example 245]
15,6.91,COc1ccc(Oc2c(Cl)cc(NC(=O)Cc3cnn(C)c3)cc2Cl)cc1C(C)C [Example 246]
16,6.94,COc1ccc(Oc2c(Cl)cc(NC(=O)C(O)c3cccnc3)cc2Cl)cc1C(C)C (centres unmarked) [Example 247]
17,5.65,COc1ccc(Oc2c(Cl)cc(NC(=O)Cc3cncn3C)cc2Cl)cc1C(C)C [Example 248]
18,5.79,COc1ccc(Oc2c(Cl)cc(NC(=O)CCc3c(C)n[nH]c3C)cc2Cl)cc1C(C)C [Example 249]
19,6.30,COc1ccc(Oc2c(Cl)cc(NC(=O)Cc3cnc[nH]3)cc2Cl)cc1C(C)C [Example 250]
20,6.36,COC(=O)NCC1CN(c2cc(Cl)c(Oc3ccc(OC)c(C(C)C)c3)c(Cl)c2)C(=O)O1 (centres unmarked) [Example 251]
21,6.58,COc1ccc(Oc2c(Cl)cc(NC(=O)CCn3ccc(S(C)(=O)=O)n3)cc2Cl)cc1C(C)C [Example 252]
22,6.32,COc1ccc(Oc2c(Cl)cc(N3CC(CNC(=O)CS(C)(=O)=O)OC3=O)cc2Cl)cc1C(C)C (centres unmarked) [Example 253]
23,6.18,COc1ccc(Oc2c(Cl)cc(N3CC(CNS(C)(=O)=O)OC3=O)cc2Cl)cc1C(C)C (centres unmarked) [Example 254]
24,7.72,COc1ccc(Oc2c(Cl)cc(NC(=O)CC3CCN(S(C)(=O)=O)CC3)cc2Cl)cc1C(C)(C)C [Example 255]
25,6.82,COc1ccc(Oc2c(Cl)cc(NC(=O)Cc3cnn(S(C)(=O)=O)c3)cc2Cl)cc1C(C)(C)C [Example 256]
26,7.72,CC(C)c1cc(F)cc(Oc2c(Cl)cc(NC(=O)CC3CCN(S(C)(=O)=O)CC3)cc2Cl)c1 [Example 258]
27,6.45,CC(C)c1cc(Oc2c(Cl)cc(NC(=O)Cc3cccnc3)cc2Cl)ccc1OC(F)(F)F [Example 259]
28,6.99,CC(C)c1cc(Oc2c(Cl)cc(NC(=O)CC3CCN(S(C)(=O)=O)CC3)cc2Cl)ccc1OC(F)(F)F [Example 260]

row,pEC50,SMILES
1,7.85,CC(C)c1cc(F)cc(Oc2c(Cl)ccc(C(=O)NCC3CCN(S(C)(=O)=O)CC3)c2Cl)c1 [Example 261]
2,7.41,CC(C)c1cc(F)cc(Oc2c(Cl)ccc(C(=O)N3CCC(S(C)(=O)=O)CC3)c2Cl)c1 [Example 264]
3,6.69,CC(C)c1cc(Oc2c(Cl)cc(NC(=O)Cc3cccnc3)cc2Cl)ccc1Cl [Example 265]
4,7.96,CC(C)c1cc(Oc2c(Cl)cc(NC(=O)CC3CCN(S(C)(=O)=O)CC3)cc2Cl)ccc1F [Example 266]
5,6.43,COc1ncc(Oc2c(Cl)cc(NC(=O)CN3CC(NS(C)(=O)=O)C3)cc2Cl)cc1C(C)C [Example 267]
6,7.40,COc1ncc(Oc2c(Cl)cc(NC(=O)CN3CCC(S(C)(=O)=O)CC3)cc2Cl)cc1C(C)C [Example 268]
7,6.73,C=C(C)c1cc(Oc2c(Cl)cc(NC(=O)CC3CCN(S(C)(=O)=O)CC3)cc2Cl)ccc1Cl [Example 269]
8,7.66,CC(C)c1cc(F)cc(Oc2c(Cl)cc(NC(=O)CC3CCN(S(N)(=O)=O)CC3)cc2Cl)c1 [Example 270]
9,7.11,CS(=O)(=O)N1CCN(CC(=O)Nc2cc(Cl)c(Oc3ccc(F)c(C4CC4)c3)c(Cl)c2)CC1 [Example 271]
10,6.59,CC(=O)NC[C@H]1CN(c2cc(Cl)c(Oc3cc(F)cc(C(C)C)c3)c(Cl)c2)C(=O)O1 [Example 272]
11,8.96,CC1(c2cc(F)cc(Oc3c(Cl)cc(NC(=O)Cc4cccc(S(C)(=O)=O)c4)cc3Cl)c2)CC1 [Example 273]
12,8.41,CC1(c2cc(F)cc(Oc3c(Cl)cc(NC(=O)Cc4ccc(S(C)(=O)=O)cc4)cc3Cl)c2)CC1 [Example 274]
13,7.92,CC1(c2cc(F)cc(Oc3c(Cl)cc(NC(=O)CC4CCN(C(=O)C(F)(F)F)CC4)cc3Cl)c2)CC1 [Example 275]
14,8.29,CC1(c2cc(F)cc(Oc3c(Cl)ccc(C(=O)NCc4ccc(S(C)(=O)=O)cc4)c3Cl)c2)CC1 [Example 276]
15,8.25,CC1(c2cc(F)cc(Oc3c(Cl)ccc(C(=O)N4CCC5(CC4)CN(S(C)(=O)=O)C5)c3Cl)c2)CC1 [Example 277]
16,8.77,CC1(c2cc(F)cc(Oc3c(Cl)ccc(C(=O)NCc4ccc(S(N)(=O)=O)cc4)c3Cl)c2)CC1 [Example 278]
17,6.18,COc1ccc(Oc2c(Cl)cc(NC(=O)CN(C)C)cc2Cl)cc1C(C)C [Example 280]
18,6.43,COc1ccc(Oc2c(Cl)cc(NC(=O)CCC(N)=O)cc2Cl)cc1C(C)C [Example 281]
19,6.58,COc1ccc(Oc2c(Cl)cc(NC(=O)CCCS(N)(=O)=O)cc2Cl)cc1C(C)C [Example 282]
20,4.40,COc1ccc(Oc2c(Cl)cc(NC(=O)CCc3ccccc3)cc2Cl)cc1C(C)C [Example 284]
21,6.55,COc1ccc(Oc2c(Cl)cc(NC(=O)CCCc3ccccc3)cc2Cl)cc1C(C)C [Example 285]
22,6.50,COc1ccc(Oc2c(Cl)cc(NC(=O)Cc3cnccn3)cc2Cl)cc1C(C)C [Example 286]
23,6.88,COc1ccc(Oc2c(Cl)cc(NC(=O)C3CCCCC3)cc2Cl)cc1C(C)C [Example 287]
24,5.90,COC(=O)c1cccc(C(=O)Nc2cc(Cl)c(Oc3ccc(OC)c(C(C)C)c3)c(Cl)c2)c1 [Example 288]
25,5.83,COc1ccc(Oc2c(Cl)cc(NC(=O)c3cccc(S(C)(=O)=O)c3)cc2Cl)cc1C(C)C [Example 289]
26,6.28,COc1ccc(Oc2c(Cl)cc(NC(=O)CCC(C)C)cc2Cl)cc1C(C)C [Example 290]
27,6.87,COc1ccc(Oc2c(Cl)cc(NC(=O)CCN3CCCC3=O)cc2Cl)cc1C(C)C [Example 291]
